pIC50, pKi: −log10 of the molar value. ≈ marks a conversion by molar mass, not a printed value. Where “and” joins values, the source holds several entries; their conditions need not be identical. Identical values can stand only once.
Key:
MCF7 = assay: Cytotoxicity against human MCF7 cells assessed as inhibition of cell growth; format: functional, cell-based
Nitzschia amabilis = assay: Growth inhibition of marine diatom assessed as inhibition rate at 10 ug/ml relative to control; format: functional
[1] = Toxicity in brine shrimp assessed as lethal dose; conditions: artemia salina; read-out: LD50 (the source's name)
N2a = assay: Cytotoxicity against mouse Neuro2a cells assessed as inhibition of cell growth; format: functional, cell-based
NCI-H460 = assay: Cytotoxicity against human NCI-H460 cells; format: functional, cell-based
HeLa = assay: Cytotoxicity against human HeLa cells assessed as inhibition of cell growth incubated for 48 hrs by WST-8 colorimetric assay; format: functional, cell-based
L1210 [2] = assay: Cytotoxicity against mouse L1210 cells assessed as inhibition of cell growth at 10 ug/mL relative to control; format: functional; conditions: for inhibition (INH): dose 10 µg/ml; for inhibition at 10 µg/mL: Mus musculus, L1210, dose 10 µg/ml
[3] = tested on: Mycobacterium tuberculosis; assay: Antimycobacterial activity against Mycobacterium tuberculosis H37Rv assessed as inhibition of bacterial growth at 12.5 ug/ml relative to control; format: functional
HT-29 = assay: Cytotoxicity against human HT-29 cells assessed as cell growth inhibition; format: functional
A549 = assay: Cytotoxicity against human A549 cells assessed as cell growth inhibition; format: functional, cell-based
MDA-MB-231 = assay: Cytotoxicity against human MDA-MB-231 cells assessed as cell growth inhibition; format: functional
L1210 [4] = assay: Cytotoxicity against mouse L1210 cells assessed as inhibition of cell growth; format: functional, cell-based
[5] = Toxicity in shrimp assessed as lethal dose; conditions: palaemon paucidens
[6] = target: Protein kinase C delta type (Homo sapiens, UniProt Q05655); assay: Inhibition of [3H]-PDBu binding to PKCdelta C1B domain (unknown origin) by competitive binding assay
Protein kinase C delta type, sequence (Q05655 whole entry, the tested form may be a part): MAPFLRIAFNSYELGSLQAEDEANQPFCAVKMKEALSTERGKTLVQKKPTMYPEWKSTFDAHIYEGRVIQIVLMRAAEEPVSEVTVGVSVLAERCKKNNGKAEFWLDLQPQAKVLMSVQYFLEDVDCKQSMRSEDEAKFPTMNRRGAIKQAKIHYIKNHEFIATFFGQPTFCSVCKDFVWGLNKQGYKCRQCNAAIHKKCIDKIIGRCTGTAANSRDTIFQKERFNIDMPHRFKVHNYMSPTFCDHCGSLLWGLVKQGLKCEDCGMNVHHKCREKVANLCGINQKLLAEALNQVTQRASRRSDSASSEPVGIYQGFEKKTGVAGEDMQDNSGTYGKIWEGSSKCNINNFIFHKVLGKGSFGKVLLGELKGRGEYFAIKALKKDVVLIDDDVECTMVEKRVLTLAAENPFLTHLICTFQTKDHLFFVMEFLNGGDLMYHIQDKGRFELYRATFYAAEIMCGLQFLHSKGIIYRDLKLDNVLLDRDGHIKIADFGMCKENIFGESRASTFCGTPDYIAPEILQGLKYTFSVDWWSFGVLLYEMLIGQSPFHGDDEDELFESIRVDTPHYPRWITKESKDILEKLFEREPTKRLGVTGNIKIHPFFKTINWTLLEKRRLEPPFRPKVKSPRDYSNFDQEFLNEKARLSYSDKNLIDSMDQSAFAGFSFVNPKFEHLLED

O=c1ccn([C@H]2C[C@H](O)[C@@H](CO)O2)c(=O)n1CCc1ccccc1
IC50 (MCF7): 18.2 µg/mL (≈ 54.8 µM)

CO[C@@H](CC[C@H](C)[C@H]1O[C@]23C[C@H](OC(=O)C[C@H]([C@@H](C)O)OC(=O)CC(=C(C)CC2(C)C)O3)[C@@H]1C)c1cc(O)ccc1Br
inhibition at 10 µg/mL (Nitzschia amabilis): 30%

CCCCCCCCCCC[C@]1(CO)CCCC(=O)O1 [TANIKOLIDE]
LC50 [1]: 3.6 µg/mL

CCCCCCCC[C@@H](C/C=C/CCC(=O)NC/C(=C/Cl)C1=CCCCC1=O)OC
pIC50 (N2a; Mus musculus, N2a): 6.31
pIC50 (NCI-H460): 5.96

CC[C@@H](C)[C@H]1C(=O)N2CCC[C@H]2C(=O)O[C@H](C(C)(C)C)C[C@@H](C)C[C@H](O)[C@H](C)C2=N[C@@H](/C=C(\C)C(=O)N[C@@H](Cc3ccc(OCCCCCCCN=[N+]=[N-])cc3)C(=O)N(C)[C@@H](C)C(=O)N1C)CS2
pIC50 (HeLa): 7.10

CO[C@@H](CC[C@H](C)[C@H]1O[C@@]23C[C@H](OC(=O)C[C@H]([C@@H](C)O)OC(=O)/C=C(\O2)[C@]2(CO2)CC3(C)C)[C@@H]1C)c1cc(O)ccc1Br
inhibition (INH) (L1210 [2]): 10% and 25%
inhibition at 10 µg/mL (Nitzschia amabilis): 30%

CC[C@@H](C)[C@H]1C(=O)N2CCC[C@H]2C(=O)O[C@H](C(C)(C)C)C[C@@H](C)C[C@H](O)[C@H](C)C2=N[C@@H](/C=C(\C)C(=O)N[C@@H](Cc3ccc(OCCCCCCCn4cc(-c5ccccc5)nn4)cc3)C(=O)N(C)[C@@H](C)C(=O)N1C)CS2
pIC50 (HeLa): 7.30

CCCCCCC[C@@H](C/C=C/CCC(=O)O)OC
inhibition at 12.5 µg/mL [3]: 65%
GI50 (HT-29): 40 µM
GI50 (A549): 40 µM
GI50 (MDA-MB-231): 40 µM

CCC1CC(C)CC(=O)N(C)/C=C/CCC(C)C(=O)N[C@@H](C(C)C)C(=O)N(C)[C@@H](Cc2ccccc2)C(=O)N(C)[C@@H]([C@@H](C)O)C(=O)N(C)[C@@H](Cc2ccccc2)C(=O)O1 (stereo partly specified)
pIC50 (N2a; Mus musculus, N2a): 5.22
LC50 [1]: 9 µM

CCCCCCCC[C@@H](C/C=C/CCC(=O)NC/C(=C/Cl)[C@]12O[C@H]1[C@H](O)CCC2=O)OC
pIC50 (N2a; Mus musculus, N2a): 5.40
pIC50 (NCI-H460): 5.40

CCCCCCCC[C@@H](C/C=C/CCC(=O)N(C)C/C(=C\Cl)C/C(=C\C(=O)N1CC(OC)=CC1=O)OC)OC
pIC50 (L1210 [4]): 5.54

CO[C@@H](CC[C@H](C)[C@H]1OC2=C(/C(=C/C(=O)O[C@@H]3CC(=O)O[C@@H]3C)[C@H](C)CC2(C)C)[C@H](OC)[C@@H]1C)c1cc(O)ccc1Br
inhibition at 10 µg/mL (Nitzschia amabilis): 30%

CO[C@@H](CC[C@H](C)[C@H]1O[C@@]23C[C@H](OC(=O)C[C@H]([C@@H](C)O)OC(=O)/C=C(\O2)[C@@](C)(O)CC3(C)C)[C@@H]1C)c1cccc(O)c1
inhibition at 10 µg/mL (Nitzschia amabilis): 30%

CCCCCCCCCCCCCC/C=C/CCC1OC1C(=O)N[C@H](C)CO (stereo partly specified)
LC50 [1]: 13 µM

CO[C@@H](CC[C@H](C)[C@H]1O[C@]23C[C@H](OC(=O)C[C@H]([C@@H](C)O)OC(=O)C(O)C(=C(C)CC2(C)C)O3)[C@@H]1C)c1cc(O)ccc1Br (stereo partly specified)
inhibition at 10 µg/mL (L1210 [2]): 10%
inhibition (INH) (L1210 [2]): 20%
inhibition at 10 µg/mL (Nitzschia amabilis): 30%

COC(=O)C(CCC#CC=C(Cl)Cl)C(CCCC#CCC(Cl)Cl)NC=O (stereo unspecified)
LC50 [1]: 1.7 µg/mL

CO[C@@H](CC[C@H](C)[C@@H]1CC=C[C@]2(O1)[C@H](C(=O)O[C@@H]1CC(=O)O[C@@H]1C)C(=O)[C@H](C)CC2(C)C)c1cc(O)ccc1Br
inhibition at 10 µg/mL (Nitzschia amabilis): 30%

CCCCCCCC[C@@H](C/C=C/CCC(=O)N(C)C/C(=C\Cl)C/C(=C\C(=O)N1C[C@H](O)CC1=O)OC)OC
pIC50 (L1210 [4]): 5.54

CC[C@H](C)[C@H]1C(=O)N(C)[C@@H](C)C(=O)O[C@H](C(C)(C)C)C[C@@H](C)C[C@H](O)[C@H](C)C2=NC(/C=C(\C)C(=O)N[C@@H](Cc3ccc(OC)cc3)C(=O)N(C)[C@@H](C)C(=O)N1C)CS2 (stereo partly specified)
pIC50 (NCI-H460): 8.70

COC(=O)C(CCCCCC(Cl)Cl)C(CCCC#C/C=C/Cl)NC=O (stereo unspecified)
LC50 [1]: 1.7 µg/mL

C=C[C@@](C)(CCC=C(C)C)c1ccc2c3c1NC(=O)[C@@]3(O)C[C@@H](CO)NC(=O)[C@@H](C(C)C)N2C
pIC50 (L1210 [4]): 4.01
LD33 [5]: 89 mg/kg
pKi [6]: 5.85

CCC[C@H]1NC(=O)c2csc(n2)[C@H](C)NC(=O)[C@H](C(C)C)N(C)C(=O)[C@H](Cc2ccccc2)N(C)C(=O)[C@H](C)OC(=O)[C@@H]1C [ULONGAMIDE A]
pIC50 (N2a; n2a): 5.22 and 4.80
LC50 [1]: 18 µM

CO[C@@H](CC[C@H](C)C1O[C@@]2(C=C[C@@H]1C)[C@H](C(=O)O[C@@H]1CC(=O)O[C@@H]1C)C(=O)[C@H](C)CC2(C)C)c1cccc(O)c1 (stereo partly specified)
inhibition at 10 µg/mL (Nitzschia amabilis): 30%

C=C[C@@](C)(CCC=C(C)C)c1ccc2c3c(c[nH]c13)C[C@@H](CO)NC(=O)[C@@H](C(C)C)N2C
pIC50 (L1210 [4]): 4.69
LD100 [5]: 7.5 mg/kg
pKi [6]: 7.77

CCCCCCCCC(O)C/C=C/CCC(=O)N(C)C/C(=C\Cl)C/C(=C\C(=O)N1CC(OC)=CC1=O)OC (stereo unspecified)
pIC50 (L1210 [4]): 5.54
LD50 [5]: 33.3 mg/kg

CO[C@@H](CC[C@H](C)[C@H]1O[C@@]23C[C@H](OC(=O)C[C@@H]([C@@H](C)O)OC(=O)C[C@](OC)(O2)[C@H](C)CC3(C)C)[C@@H]1C)c1cc(O)ccc1Br
inhibition at 10 µg/mL (Nitzschia amabilis): 30%

CO[C@@H](CC[C@H](C)[C@H]1O[C@@]23C[C@H](OC(=O)C[C@H]([C@@H](C)O)OC(=O)/C=C(\O2)[C@@](C)(OO)CC3(C)C)[C@@H]1C)c1cc(O)ccc1Br
inhibition at 10 µg/mL (Nitzschia amabilis): 30%

CO[C@@H](CC[C@H](C)[C@H]1O[C@@]2(C[C@H](OC)[C@@H]1C)OC(CC(=O)O[C@@H]1CC(=O)O[C@@H]1C)=C(C)CC2(C)C)c1cc(O)ccc1Br
inhibition at 10 µg/mL (Nitzschia amabilis): 30%

CO[C@@H](CC[C@H](C)[C@H]1O[C@@]23C[C@H](OC(=O)C[C@H]([C@@H](C)O)OC(=O)C[C@](O)(O2)[C@H](C)CC3(C)C)[C@@H]1C)c1cccc(O)c1 [DEBROMOAPLYSIATOXIN]
inhibition at 10 µg/mL (Nitzschia amabilis): 30%

CO[C@@H](CC[C@H](C)[C@H]1O[C@]23C[C@H](OC(=O)C[C@@H]([C@@H](C)O)OC(=O)CC(=C(C)CC2(C)C)O3)[C@@H]1C)c1cccc(O)c1
inhibition at 10 µg/mL (Nitzschia amabilis): 30%

COc1ccc(C[C@@H]2NC(=O)/C(C)=C/C3CSC(=N3)[C@@H](C)[C@@H](O)C[C@H](C)C[C@@H](C(C)(C)C)OC(=O)[C@H](C)N(C)C(=O)[C@H](C(C)C)N(C)C(=O)[C@H](C)N(C)C2=O)cc1 (stereo partly specified)
pIC50 (NCI-H460): 7.85

COC(=O)[C@H](CCC#CC=C(Cl)Cl)[C@@H](CCCC#CCC(Cl)Cl)NC=O
LC50 [1]: 1.7 µg/mL

CCCCCCC[C@@H](C/C=C/CCC(=O)N(C)C/C(=C\Cl)C/C(=C\C(=O)N1CC=CC1=O)OC)OC
inhibition at 12.5 µg/mL [3]: 10%
GI50 (HT-29): 40 µM
GI50 (A549): 40 µM
GI50 (MDA-MB-231): 40 µM

COC(=O)C(CCCCCC(Cl)Cl)C(CCCC#CC=C(Cl)Cl)NC=O (stereo unspecified)
LC50 [1]: 1.7 µg/mL

CO[C@@H](CC[C@H](C)[C@H]1O[C@@]23C[C@H](OC(=O)C[C@H]([C@@H](C)O)OC(=O)/C=C(\O2)[C@@](C)(O)CC3(C)C)[C@@H]1C)c1cc(O)ccc1Br
inhibition at 10 µg/mL (L1210 [2]): 10%
inhibition (INH) (L1210 [2]): 20%
inhibition at 10 µg/mL (Nitzschia amabilis): 30%

CCCCCCC[C@@H](C/C=C/CCC(=O)N(C)C/C(=C/Cl)C/C(=C\C(=O)N1CC(OC)=CC1=O)OC)OC
inhibition at 12.5 µg/mL [3]: 10%
GI50 (HT-29): 40 µM
GI50 (A549): 40 µM
GI50 (MDA-MB-231): 40 µM

CO[C@@H](CC[C@H](C)[C@H]1O[C@@]23C[C@H](OC(=O)C[C@H]([C@@H](C)O)OC(=O)/C=C(\O2)[C@@](C)(OO)CC3(C)C)[C@@H]1C)c1cccc(O)c1
inhibition at 10 µg/mL (L1210 [2]): 10%

COC(=O)C(CCC#CC=C(Cl)Cl)C(CCC/C=C/CC(Cl)Cl)NC=O (stereo unspecified)
LC50 [1]: 1.7 µg/mL

CC(=O)n1c(=O)ccn([C@H]2C[C@H](O)[C@@H](CO)O2)c1=O
IC50 (MCF7): 18.2 µg/mL (≈ 67.3 µM)

CCCCCCC[C@@H](C/C=C/CCC(=O)N(C)C/C(=C/Cl)C/C(=C\C(=O)N1CC(O)CC1=O)OC)OC (stereo partly specified)
inhibition at 12.5 µg/mL [3]: 10%
GI50 (HT-29): 40 µM
GI50 (A549): 40 µM
GI50 (MDA-MB-231): 40 µM

C=CC/C=C/N(C)C(=O)CCCCCCCC/C=C/[C@H](CSSC[C@@H](/C=C/CCCCCCCCC(=O)N(C)/C=C/CC=C)NC(C)=O)NC(C)=O
IC50 (N2a; Mus musculus, N2a): 1.4 µg/mL

CC[C@@H](C)[C@H]1C(=O)N2CCC[C@H]2C(=O)O[C@H](C(C)(C)C)C[C@@H](C)C[C@H](O)[C@@H](C)C2=N[C@@H](/C=C(\C)C(=O)N[C@@H](Cc3ccc(OC)cc3)C(=O)N(C)[C@@H](C)C(=O)N1C)CS2
pIC50 (HeLa): 6.72

CO/C(=C/C(=O)N1C(=O)C=C[C@@H]1C)CCNC(=O)CC/C=C/C(C)CC/C(=C\Cl)CCCC#CBr (stereo partly specified)
pIC50 (N2a; Mus musculus, N2a): 4.82
pIC50 (NCI-H460): 4.82

CCCCCCCCCCCC/C=C/C[C@@H](O)[C@H](CO[C@@H]1O[C@H](CO)[C@@H](O)[C@H](O)[C@H]1O)NC(=O)CCCCCCCCCCCCCCCCCCCCCCCCC
IC50 (MCF7): 18.2 µg/mL (≈ 21.7 µM)

Reference: ChEMBL document CHEMBL5244246, “Recent advances in chemistry and bioactivity of marine cyanobacteria Moorea species” (Eur J Med Chem, 2020)
